According to patent publication US11453638B2, “Process method for producing pesticide by using carbon dioxide” (Nankai University, priority 2018, dated 2022):

Legend:
Type in all cases: in vivo
Helicoverpa armigera = test: Activity of killing Helicoverpa armigera (leaf soaking method); conditions: for Mortality: 600 ppm, third-instar larvae, corn leaf soaking, 72 hours
Procedure: 3) Activity of killing Helicoverpa armigera:Helicoverpa armigera, a normal population raised indoors. Test method: leaf soaking method. In the leaf soaking method, corn leaves are soaked in a liquid medicine prepared by acetone (600 ppm, 600 mg/L), ground and put into 24 holes after the liquid medicine is dried, one third-instar larva is inserted into each hole, 10 are used for each time, and three times are repeated, a total of 30 test insects are tested, mainly gastric toxicity and contact killing effects, and the feeding phenomenon of the larva is observed. Mortality was examined 72 hours later.

[1] = system: Ostrinia nubilalis Hubner; test: Activity of killing Ostrinia nubilalis Hubner (leaf soaking method); conditions: for Mortality: 600 ppm (table), 3rd instar larvae, corn leaf dipping, 72 hours
Excerpt: 4) Activity of killing Ostrinia nubilalis Hubner: Ostrinia nubilalis Hubner, a normal population raised indoors. Test method: leaf soaking method. In the leaf dipping method, corn leaves are dipped in a liquid medicine prepared by acetone ([…]), 10 3rd instar larvae are inoculated into a culture dish after the liquid medicine is dried, and 30 test larvae are shared for three times, mainly gastric toxicity and contact killing effects, and the feeding phenomenon of the larvae is observed. Mortality was examined 72 hours later.

Mythimna separata Walker = test: Activity of killing Mythimna separata Walker (leaf dipping method); conditions: for Mortality: 4th instar larvae, corn leaf dipping, 24 hours
Procedure: 1) Activity of killing Mythimna separata Walker: Mythimna separata Walker, a normal population raised indoors. In the leaf dipping method, corn leaves are dipped in a liquid medicine ([…]) prepared by acetone, and the 4th instar larvae are inoculated after the liquid medicine, mainly for stomach toxicity and contact killing, and the feeding phenomenon of the larvae is observed. Mortality was examined 24 hours.

Culex pipiens pallens = test: Activity of killing Culex pipiens pallens larvae; conditions: for Mortality: 10 ppm, 4th instar mosquito larvae in water, 24 h
Procedure: 2) Activity of killing Culexpipiens pallens larval: Culicides pallens, a normal indoor population. Weigh about 5 mg of the test compound into a penicillin vial, add 5 mL of acetone (or a suitable solvent), and shake to dissolve, i.e. 1000 μg·ml^−1 mother liquor. 0.5 mL mother liquor was removed and added into a 100 mL beaker containing […] of water. Ten 4th instar mosquito larvae were selected and poured into the beaker together with 10 mL of feeding liquid. The concentration of the liquid medicine was 10 μg·ml^−1. Place the treatment in the standard treatment room, and check the results 24 h. The blank control was an aqueous solution containing 0.5 mL of test solvent.

Row | Structure (SMILES) | Mortality (Helicoverpa armigera) | Mortality [1] | Mortality (Mythimna separata Walker; 600 ppm) | Mortality (Culex pipiens pallens) | lethal rate to cotton bollworm (Helicoverpa armigera; concentration of 600 ppm) | lethal rate to Ostrinia nubilalis Hubner ([1]; concentration of 600 ppm) | Mortality (Mythimna separata Walker; 200 ppm) | lethal rate to armyworm (Mythimna separata Walker; concentration of 200 ppm) | lethal rate to Culex pipiens larvae (Culex pipiens pallens; concentration of 10 ppm)
1 | CC1CC(=O)C(C(=O)Nc2ccccc2)=C(Nc2ccccc2)C1 (centres unmarked) [compound 3b] | 15% | 20% | 35% | 70% |  |  |  |  | 
2 | CC1(C)CC(=O)C(C(=O)Nc2ccccc2)=C(Nc2ccccc2)C1 [compound 3c] | 10% | 15% | 30% | 80% |  |  |  |  | 
3 | CCC1CC(=O)C(C(=O)Nc2ccccc2)=C(Nc2ccccc2)C1 (centres unmarked) [compound 3d] | 100% | 100% |  | 20% | 100% | 100% | 100% | 100% | 
4 | CCCC1CC(=O)C(C(=O)Nc2ccccc2)=C(Nc2ccccc2)C1 (centres unmarked) [compound 3e] | 25% | 30% | 55% | 100% |  |  |  |  | 100%
